Results taken from BindingDB's records for doi:10.1021/jm00388a021 (1987).
pKi: −log10 of the molar value.

What was measured:
[1] = molecular target: Thymidine kinase (Herpes simplex virus 1); test: Compound was evaluated for Kinetic constant for viral thymidine kinase of Herpes simplex virus (HSV) -1
[2] = molecular target: Thymidine kinase (Herpes simplex virus 2); test: Compound was evaluated for Kinetic constant for viral thymidine kinase of Herpes simplex virus (HSV) -2

pKi [1]: 6.85
pKi [2]: 6.02
Structure (SMILES): O=c1[nH]c(=O)n([C@@H]2O[C@H](CO)[C@@H](O)[C@@H]2F)cc1I [FIALURIDINE]
